Laboratory results published in patent publication US12569495B2, “Inhibitors of porcine reproductive and respiratory syndrome virus” (UNIVERSITY OF CONNECTICUT, priority 2020, dated 2026).

Key:
[1] = target: T1, protein-protein interactions (PPI) between CD163-SRCR5 domain and PRRSV GP2a protein (Sus scrofa, UniProt Q2VL90); assay: BiFC assay between SRCR5-VN and GP2a-VC proteins; assay type: cell-based, porcine CD163; PRRSV; conditions: for inhibitory function in BiFC assay compared with B7: methyl and/or fluoro groups removed from the benzenesulfonamide moiety; for inhibition of CD163-SRCR5/GP2a PPI in the BiFC assay, B7 analogues: HEK293T cells, DMSO as Ctrl, concentration not given
T1 construct: The amplified cDNA fragments of SRCR2 or SRCR5 were subcloned into the pBiFC-VN155(I152L) vector; Myc tag (from vector backbone pMyc-CMV); expressed in transfected cells; host or cells: HEK293T
T1 sequence (Q2VL90 477-577): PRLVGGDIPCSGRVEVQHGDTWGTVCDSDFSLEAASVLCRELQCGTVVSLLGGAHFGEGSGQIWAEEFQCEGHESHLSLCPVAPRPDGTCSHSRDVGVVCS
Description: The N-terminus and C-terminus of the truncated Venus-I152L were inserted into vector backbone pMyc-CMV and pCMV-HA, constituting commercial plasmids pBiFC-VN155(I152L) and pBiFC-VC155, respectively (Addgene, Watertown, MA, USA). See Kodama and Hu, Biotechniques 49:793-805 (2010). cDNA fragments for the scavenger receptor cysteine-rich domain 2 (SRCR2) and SRCR5 of porcine CD163 receptor, and for PRRSV glycoproteins GP2a and GP4 were amplified by RT-PCR. The amplified cDNA fragments of SRCR2 or SRCR5 were subcloned into the pBiFC-VN155(I152L) vector digested with EcoRI/BglII. For constructions of GP2a and GP4 fusion proteins, cDNA fragments encoding GP2a or GP4 were subcloned into the pBiFC-VC155 vector digested with EcoRI/BglII. All plasmid clones were verified by DNA Sanger sequencing.
HEK293T cells cultured in 12-well plates were transfected with appropriate plasmids for each BiFC assay using FuGENE® 6 (Promega, Madison, WI, USA). After 5 h, various concentrations of chemical compounds were added to the culture media. DMSO was used as the vehicle control. Fluorescence images of treated cells at 24 h after plasmid transfection were captured using an inverted Nikon fluorescence microscope. Fluorescence intensity of treated cells was measured by ImageJ.
Using the previously described BiFC vector based on the fragmented venus protein (VN-155[I152L], hereafter named VN) and (VC-155, hereafter named VC), fusion protein constructs were established between the porcine CD163 protein SRCR5 or SRCR2 domain and VN, and between the PRRSV minor glycoproteins (GP2a or GP4) and VC (FIG. 1A, 2). See Kodama et al., Biotechniques 49(5): 793-805 (2010). These plasmids were co-expressed in HEK293T cells to evaluate the PPIs between the SRCR5 domain and GP2a or GP4.
The BiFC assays was tested to determine whether it could identify small molecules with potential to block the protein-protein interactions between CD163 and PRRSV. A customized virtual screen of a library of commercially available small molecules was performed with the AtomNet® model at a region centered around R561 (FIG. 3) based on the available 3-D protein structure of porcine CD163-SRCR5 domain, and 74 compounds predicted to target this potential binding site were procured. Ma et al., J. Virol. 91(3): e01897-16 (2017). These compounds were tested using the BiFC assay, to evaluate their ability to inhibit the PPI between GP2a and SRCR5. Plasmids were co-transfected in HEK293T cells, 4 h later, compounds were individually administered to cells at 5 μM. Twenty-four hours later, images were taken under a fluorescence microscope and the fluorescence quantified. […] Until these studies, there has been no known biological activity reported for compound B7.

[2] = tested on: PRRSV strain VR-2332; assay: PRRSV titration assay of culture media of infected PAMs; assay type: cell-based; conditions: 15 μM; for log reduction of viral titer: pre- and post-inoculation treatment; for inhibitory function in PRRSV infection assay compared with B7: qRT-PCR and titration (FIG. 7B, 7C)
Experimental: (§1) For PRRSV infection of PAM cells, PAMs were seeded one day prior to infection. […] Cells were inoculated with VR-2332, SDSU73, NADC30 or Lelystad PRRSV at MOI=0.1 for 1 h. The 24 h cell medium supernatant was stored at −80° C. until use.
For PRRSV titration assay, MARC145 cells were seeded in 48-well plates and grew to ˜80% density before inoculation. Viral supernatants were prepared by 10-fold serial dilution, and 100 μl of the dilutions was added per well in six replicates. Inocula were removed from cells after 2 h and replaced with 0.5 mL of DMEM supplemented with 2% FBS, 2 mM glutamine, 0.1 mM MEM non-essential amino acids, 50 U/mL penicillin, and 50 μg/mL streptomycin (Invitrogen). Cells were cultured at 37° C. for 6 days and any cytopathic effects were observed and recorded. The PRRSV titer was calculated using the Reed and Muench method and expressed as median tissue culture infectious dose (TCID50/mL). Reed and Muench, Am. J. Epidemiol. 27(3): 493-497 (1938).

[3] = tested on: PRRSV strain VR-2332; assay: qRT-PCR for PRRSV RNA in infected PAMs; assay type: cell-based; conditions: 15 μM; VR-2332; 24 h
Experimental: Total RNA was extracted from PAMs infected with PRRSV using RNeasy Mini Kit (Qiagen, Germantown, MD) according to the manufacturer's instruction. RNA concentrations were measured using a Nanodrop spectrophotometer (Thermo Fisher Scientific). GAPDH was used as a housekeeping gene for gene expression normalization. Data were processed with the software associated with ABI 7500.
as §1

For `O=S(=O)(Nc1nc2ccccc2nc1Nc1ccc(Cl)c(S(=O)(=O)N2CCOCC2)c1)c1ccccc1` [Compound B7-A1, N-[3-(4-chloro-3-morpholin-4-ylsulfonylanilino)quinoxalin-2-yl] benzenesulfonamide], the “inhibitory function in BiFC assay compared with B7” value [1] was “weakened the compound's inhibitory function”, the “log reduction of viral titer” value ([2]; 24 h) was 2.2 log and the “inhibitory function in PRRSV infection assay compared with B7” value [2] was “weakened the compound's inhibitory function”.
For `Cc1ccccc1S(=O)(=O)Nc1nc2ccccc2nc1Nc1ccc(S(=O)(=O)N2CCOCC2)cc1` [Compound B7-A2, 2-methyl-N-[3-(4-morpholin-4-ylsulfonylanilino)quinoxalin-2-yl] benzenesulfonamide], the “inhibition of CD163-SRCR5/GP2a PPI in the BiFC assay, B7 analogues” value (from here on “inhibition … in the BiFC assay, B7 analogues”) [1] was “does not eliminate these compounds' ability to inhibit”, the “inhibitory function in BiFC assay compared with B7” value [1] was “weakened the compound's inhibitory function” and the “log reduction of viral titer” value ([2]; 24 h) was 2.4 log. For the same compound, the “inhibitory function in PRRSV infection assay compared with B7” value [2] was “weakened the compound's inhibitory function”.
In the case of `O=S(=O)(Nc1nc2ccccc2nc1Nc1cccc(S(=O)(=O)N2CCOCC2)c1)c1ccccc1` [Compound B7-A3, N-[3-(3-morpholin-4-ylsulfonylanilino)quinoxalin-2-yl] benzenesulfonamide], the “inhibitory function in BiFC assay compared with B7” value [1] is reported as “weakened the compound's inhibitory function”, the “log reduction of viral titer” value ([2]; 24 h) is reported as 1.2 log and the “inhibitory function in PRRSV infection assay compared with B7” value [2] is reported as “weakened the compound's inhibitory function”.
With `Cc1ccc(S(=O)(=O)Nc2nc3ccccc3nc2Nc2cccc(S(=O)(=O)N3CCCCC3)c2)cc1` [Compound B7-A4, 4-methyl-N-[3-(3-piperidin-1-ylsulfonylanilino)quinoxalin-2-yl] benzenesulfonamide] the “inhibition … in the BiFC assay, B7 analogues” value [1] was “does not eliminate these compounds' ability to inhibit” and the “log reduction of viral titer” value ([2]; 24 h) was 2.8 log.
`Cc1ccc(S(=O)(=O)Nc2nc3ccccc3nc2N2CCOCC2)cc1` [Compound B7-A5, 4-methyl-N-(3-morpholinoquinoxalin-2-yl)benzenesulfonamide] was tested, and the “inhibition … in the BiFC assay, B7 analogues” value [1] was “completely blocked their ability to inhibit” and the “PRRSV RNA level in treated PAMs (qRT-PCR), B7 analogues” value [3] was “failed to inhibit PRRSV RNA level”.
For `Cc1ccccc1S(=O)(=O)Nc1nc2ccccc2nc1N1CCOCC1` [Compound B7-A6, 2-methyl-N-(3-morpholin-4-ylquinoxalin-2-yl) benzenesulfonamide], the “inhibition … in the BiFC assay, B7 analogues” value [1] was “completely blocked their ability to inhibit”.
For `Nc1cccc(S(=O)(=O)N2CCOCC2)c1` [Compound B7-A7, 3-(morpholinosulfonyl)aniline], the “inhibition of PRRSV infection of PAMs (titration of culture media), B7 analogues” value ([2]; 24 h) was “none of these 2 compounds inhibited PRRSV infection of PAMs”.
